Results taken from paper PMC6940745 (International Journal of Molecular Sciences, 2019).
Where a SMILES comes first, the peptide text is derived from it. [ ]: non-standard residue; d: D form. The star is where a group is joined. Bz = O=C(c1ccccc1)*; NPr2 = CCCN(CCC)*

Tests used:
[1] = molecular target: T1, human recombinant MC1 receptor (Homo sapiens, UniProt Q01726); assay: MC1R activation, cAMP HTRF assay in CHO-K1 cells; type: cell-based
T1 construct: host or cells: CHO-K1
Method: (§1) MCR-activation assays were performed by means of a cAMP HTRF (homogeneous time resolved fluorescence) assay for Gs-coupled receptors (cAMP Gs dynamic kit, Cisbio bioassays, 62AM4PEC). CHO-K1 cells expressing human recombinant MC1 receptor (EuroscreenFast, Gosselies, Belgium) (or MC2R, MC3R, MC4R, MC5R) were grown prior to the test in media without antibiotic. They were detached by gentle flushing with PBS-EDTA (5 mM EDTA), recovered by centrifugation, and resuspended in assay buffer (5 mM KCl, 1.25 mM MgSO4, 124 mM NaCl, 25 mM HEPES, 13.3 mM Glucose, 1.25 mM KH2PO4, 1.45 mM CaCl2, 0.5 g/L BSA, supplemented with 1 mM IBMX). Dose response curves were performed in parallel with the reference compounds. For agonist test (96-well), 12 µL of cells were mixed with 12 µL of the test compound diluted at increasing concentrations in assay buffer, and then incubated for 30 min at room temperature. After addition of the lysis buffer and 1 h incubation, fluorescence signal was measured, according to the manufacturer’s specifications, with the homogeneous time resolved fluorescence (HTRF) kit.

[2] = molecular target: T2, MC2R (Homo sapiens, UniProt Q01718); assay: MC2R activation, cAMP HTRF assay in CHO-K1 cells; type: cell-based
T2 construct: host or cells: CHO-K1
T2 sequence (Q01718 whole entry): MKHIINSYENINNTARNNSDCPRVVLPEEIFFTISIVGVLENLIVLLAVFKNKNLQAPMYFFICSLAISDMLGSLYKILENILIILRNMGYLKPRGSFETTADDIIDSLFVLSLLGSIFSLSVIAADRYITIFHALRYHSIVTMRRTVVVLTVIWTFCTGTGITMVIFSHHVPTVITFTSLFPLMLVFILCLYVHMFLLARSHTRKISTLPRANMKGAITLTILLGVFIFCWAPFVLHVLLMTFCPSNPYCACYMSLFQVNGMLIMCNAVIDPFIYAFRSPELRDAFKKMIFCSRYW
T2 sequence (Q8TCY5 whole entry partner): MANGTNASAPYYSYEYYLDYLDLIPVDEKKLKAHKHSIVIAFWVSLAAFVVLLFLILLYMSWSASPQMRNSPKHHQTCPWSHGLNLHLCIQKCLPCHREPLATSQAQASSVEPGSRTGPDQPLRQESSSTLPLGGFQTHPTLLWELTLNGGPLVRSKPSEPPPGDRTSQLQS
Method: as §1

[3] = molecular target: T3, MC4R (Homo sapiens, UniProt P32245); assay: MC4R activation, cAMP HTRF assay in CHO-K1 cells; type: cell-based; details: eight concentrations, 0.01 to 100,000 nM
T3 construct: host or cells: CHO-K1
T3 sequence (P32245 whole entry): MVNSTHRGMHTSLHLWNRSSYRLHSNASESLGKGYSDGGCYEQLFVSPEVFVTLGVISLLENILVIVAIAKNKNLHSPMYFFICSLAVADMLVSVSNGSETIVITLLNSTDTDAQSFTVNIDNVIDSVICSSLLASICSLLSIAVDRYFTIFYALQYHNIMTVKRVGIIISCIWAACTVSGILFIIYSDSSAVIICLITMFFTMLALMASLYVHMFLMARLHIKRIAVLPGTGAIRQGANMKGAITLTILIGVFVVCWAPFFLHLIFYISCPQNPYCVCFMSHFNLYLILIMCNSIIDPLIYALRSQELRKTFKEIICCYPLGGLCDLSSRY
Method: as §1

[4] = molecular target: T4, OP1R (Homo sapiens, UniProt P41143); assay: OP1R (delta opioid) activation, GTPγS scintillation proximity assay; type: biochemical; details: eight concentrations, 0.01 to 100,000 nM
T4 construct: host or cells: CHO-K1 (membrane preparations)
T4 sequence (P41143 whole entry): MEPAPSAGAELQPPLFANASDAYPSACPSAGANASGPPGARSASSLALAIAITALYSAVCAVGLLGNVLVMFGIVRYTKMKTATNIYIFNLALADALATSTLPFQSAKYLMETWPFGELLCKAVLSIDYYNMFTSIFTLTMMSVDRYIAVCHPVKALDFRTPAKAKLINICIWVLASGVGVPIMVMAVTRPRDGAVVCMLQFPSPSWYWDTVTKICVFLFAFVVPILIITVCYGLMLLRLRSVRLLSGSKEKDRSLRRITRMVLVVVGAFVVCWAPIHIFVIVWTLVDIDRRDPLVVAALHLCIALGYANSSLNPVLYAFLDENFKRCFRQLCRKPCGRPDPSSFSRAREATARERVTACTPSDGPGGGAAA
Method: Melatonin (MT1R and MT2R) and opioid receptor (OP1R, OP2R, and OP3R, corresponding to human delta, kappa, and mu opioid receptors) activation assays were performed by means of GTPγS scintillation proximity assays. For agonist testing, membrane preparations from CHO-K1 cells expressing each receptor (EuroscreenFast, Gosselies, Belgium) were mixed with guanosine diphosphate (GDP) (v/v). In parallel, GTPγ[^35S] (PerkinElmer, NEG030X, 0.1 nM final assay concentration) was mixed with PVT-WGA beads (Perkin Elmer, RPNQ001, 0.5 mg/well final assay density) (v/v) just before starting the reaction. The following reagents were then successively added in the wells of an Optiplate (Perkin Elmer): A total of 50 µL of test or reference ligand diluted in assay buffer, 10 µL of assay buffer (20 mM HEPES pH 7.4; 100–200 mM NaCl, 10 µg/mL saponin, MgCl2 at optimized concentration for the specific receptor, 0%–0.1% BSA), 20 µL of the membranes: GDP mix, and 20 µL of the GTPγ[^35S]: Beads mix. The plates were covered with a top seal, mixed on an orbital shaker for 2 min, and then incubated for 1 h at room temperature. Then the plates were centrifuged for 10 min at 2000 rpm, incubated at room temperature for 1 h, and counted for 1 min/well with a PerkinElmer TopCount™ reader.

[5] = molecular target: human MCH1R (Homo sapiens, UniProt Q99705); assay: MCH1R activation, Aequorin assay; type: cell-based; details: eight concentrations, 0.01 to 100,000 nM
Sequence of human MCH1R (Q99705 whole entry): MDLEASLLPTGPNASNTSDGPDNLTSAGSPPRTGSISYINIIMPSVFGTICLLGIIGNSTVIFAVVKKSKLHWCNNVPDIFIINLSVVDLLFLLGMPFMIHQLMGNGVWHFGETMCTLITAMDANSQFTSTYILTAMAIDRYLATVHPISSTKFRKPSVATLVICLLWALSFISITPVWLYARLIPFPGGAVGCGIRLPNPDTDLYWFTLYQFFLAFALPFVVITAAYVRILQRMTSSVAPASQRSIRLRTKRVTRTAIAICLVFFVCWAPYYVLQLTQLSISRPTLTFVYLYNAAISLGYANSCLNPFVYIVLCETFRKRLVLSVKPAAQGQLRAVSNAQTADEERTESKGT
Method: (§2) Melanin-concentrating hormone receptor (MCHR), endothelin-1 receptor (ETBR), and serotonin-receptor (5-HT2AR) assays were performed by means of Aequorin assays. Recombinant cells co-expressing human MCH1R, MCH2R, ETBR, or 5-HT2AR and mitochondrial apoaequorin (MCH1R, MCH2R and 5-HT2AR cells also co-express recombinant Gα16 protein) (EuroscreenFast, Gosselies, Belgium), grown 18 h prior to the test in media without antibiotics, were detached by gentle flushing with PBS-EDTA (5 mM EDTA), recovered by centrifugation, and resuspended in assay buffer (DMEM/HAM’s F12 with HEPES + 0.1% BSA protease free). Cells were incubated under agitation at room temperature for at least 4 h with Coelenterazine h (Promega, X300X, 0.5 µM final concentration). Dose response curves with the reference compounds were performed before testing the compounds. For agonist testing, 50 µL of cell suspension was injected on 50 µL of test compound or reference agonist diluted in assay buffer and plated in a 96-well plate. The resulting emission of light was recorded using the Hamamatsu Functional Drug Screening System 6000 (FDSS 6000). […] Agonist activity of test compound was expressed as a percentage of the activity of the reference agonist at its EC100 concentration.

[6] = molecular target: human MCH2R (Homo sapiens, UniProt Q969V1); assay: MCH2R activation, Aequorin assay; type: cell-based; details: eight concentrations, 0.01 to 100,000 nM
Sequence of human MCH2R (Q969V1 whole entry): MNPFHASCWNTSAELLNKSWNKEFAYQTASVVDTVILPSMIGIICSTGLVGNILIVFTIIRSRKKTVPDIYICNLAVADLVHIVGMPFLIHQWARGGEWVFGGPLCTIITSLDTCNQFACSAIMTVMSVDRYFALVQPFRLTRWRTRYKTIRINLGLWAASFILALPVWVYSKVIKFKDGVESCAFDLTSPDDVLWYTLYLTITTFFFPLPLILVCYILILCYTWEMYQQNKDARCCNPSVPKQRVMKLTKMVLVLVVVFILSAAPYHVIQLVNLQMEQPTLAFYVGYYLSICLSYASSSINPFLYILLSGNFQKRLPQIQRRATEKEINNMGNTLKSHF
Method: as §2

[7] = molecular target: human ETBR (Homo sapiens, UniProt P24530); assay: ETBR activation, Aequorin assay; type: cell-based; details: eight concentrations, 0.01 to 100,000 nM
Sequence of human ETBR (P24530 27-442): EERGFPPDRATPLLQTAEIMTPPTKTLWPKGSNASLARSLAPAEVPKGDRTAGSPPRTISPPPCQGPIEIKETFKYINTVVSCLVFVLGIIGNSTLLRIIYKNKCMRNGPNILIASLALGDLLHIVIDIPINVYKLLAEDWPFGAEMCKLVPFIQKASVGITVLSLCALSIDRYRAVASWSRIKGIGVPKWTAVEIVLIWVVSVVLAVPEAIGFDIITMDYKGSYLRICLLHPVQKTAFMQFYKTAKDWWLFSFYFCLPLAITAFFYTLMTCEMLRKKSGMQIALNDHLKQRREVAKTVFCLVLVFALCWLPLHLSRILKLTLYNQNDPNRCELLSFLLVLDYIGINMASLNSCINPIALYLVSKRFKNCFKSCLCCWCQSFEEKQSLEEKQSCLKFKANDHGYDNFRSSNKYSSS
Method: as §2

[8] = molecular target: human 5-HT2AR (Homo sapiens, UniProt P28223); assay: 5-HT2AR activation, Aequorin assay; type: cell-based; details: eight concentrations, 0.01 to 100,000 nM
Sequence of human 5-HT2AR (P28223 whole entry): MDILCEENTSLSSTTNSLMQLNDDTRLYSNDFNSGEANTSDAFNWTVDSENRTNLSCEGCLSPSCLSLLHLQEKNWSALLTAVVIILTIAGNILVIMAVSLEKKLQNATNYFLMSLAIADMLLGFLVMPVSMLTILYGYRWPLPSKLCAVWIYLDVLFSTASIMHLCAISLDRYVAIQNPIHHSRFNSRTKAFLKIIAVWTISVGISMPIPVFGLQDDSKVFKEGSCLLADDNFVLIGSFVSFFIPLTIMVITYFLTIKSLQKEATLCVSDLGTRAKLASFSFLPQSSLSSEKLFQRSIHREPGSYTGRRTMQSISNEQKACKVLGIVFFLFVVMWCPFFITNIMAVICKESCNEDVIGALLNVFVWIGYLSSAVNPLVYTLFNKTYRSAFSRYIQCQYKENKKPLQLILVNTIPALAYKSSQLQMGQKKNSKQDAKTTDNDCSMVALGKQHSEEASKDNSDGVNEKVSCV
Method: as §2

[9] = test system: TYR; assay: TYR protein expression in human skin ex vivo (immunohistochemistry); type: cell-based; details: topical 30, 100 and 200 µM, six days; p = 0.06
Method: (§3) Following declaration of Helsinki principles (DoH-Oct2013, World Medical Association, Ferney-Voltaire, France), human skin samples were obtained from elective plastic surgery after informed consent was obtained. For the two experiments shown in Figure 2, Figure 3 and Figure 4, we had one person with an individual topology angle (ITA°) of 18, and one person with an ITA° of 39 [69]. The skin samples were cut in pieces of 8 × 3 mm and cultured up to day 6. Skin samples were cultured in an air–liquid interface in a perforated ring of stainless steel in contact with culture medium (modified Williams’ E medium). The culture medium was renewed every three days (i.e., day 0–3). Compounds were added daily in DMSO at 4 µL volume. At day 6, the skin samples were fixed in formalin, embedded in paraplast, and cut at the microtome for histochemical staining and consequent image analysis. Six skin biopsies were used for each single treatment.
(§4) Twelve skin sections from the ex vivo melanogenesis experiment above were immunoassayed with the selected antibodies (TYR, Thermo Scientific #MS-800-P0 (Thermo Scientific, Waltham, MA, USA); TYRP-1, Covance #SIG-38150 (Covance Inc., Princeton, NJ, USA), MITF, Abcam #ab80651 (Abcam plc, Cambridge, UK). The number of positive cells within the epidermis was counted and the value was normalized upon the length of the basal lamina, thus obtaining a score. […]

[10] = test system: TYRP-1; assay: TYRP-1 protein expression in human skin ex vivo (immunohistochemistry); type: cell-based; details: topical 30, 100 and 200 µM, six days; p < 0.05
Method: as §3, §4

T1 sequence (Q01726 whole entry): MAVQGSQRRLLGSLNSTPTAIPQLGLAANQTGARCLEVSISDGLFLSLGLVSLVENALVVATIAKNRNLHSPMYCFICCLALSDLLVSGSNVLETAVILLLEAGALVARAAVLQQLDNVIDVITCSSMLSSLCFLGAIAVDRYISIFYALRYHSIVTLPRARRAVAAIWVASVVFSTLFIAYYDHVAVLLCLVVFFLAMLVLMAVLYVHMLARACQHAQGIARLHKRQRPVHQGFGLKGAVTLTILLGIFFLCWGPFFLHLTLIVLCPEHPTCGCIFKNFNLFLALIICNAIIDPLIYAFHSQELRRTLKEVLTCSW

CCCN(CCC)C(=O)[C@@H](Cc1c[nH]c2ccccc12)NC(=O)[C@H](CCCNC(=N)N)NC(=O)[C@@H](Cc1ccccc1)NC(=O)[C@H](Cc1c[nH]cn1)NC(=O)CNC(=O)c1ccccc1 [Peptide 4] (Bz-GH[dF]R[dW]-NPr2)
EC50 [1]: 0.00042 µM | EC50 ([2]; eight concentrations, 0.01 to 100,000 nM): > 100 µM | Activation of MC2R ([2]; up to 100 µM): no significant activation | EC50 [3]: 0.136 µM | EC50 [4]: > 100 µM | EC50 [5]: > 100 µM | EC50 [6]: > 100 µM | EC50 [7]: > 100 µM | EC50 [8]: > 100 µM | Maximal induction of TYR protein expression vs vehicle [9]: 44% | Maximal induction of TYRP-1 protein expression vs vehicle [10]: 72%
